Consider 1 substance from patent publication US5648330A, “Method and composition for treating vascular graft occlusion” (La Jolla Cancer Research Foundation, priority 1995, dated 1997).

The test system of experiment [1] is canine platelet aggregation. The experiment in a line: In vitro canine platelet aggregation stimulated by ADP, arachidonic acid or collagen. In kind it is cell-based, dog. The note with it: 10 μm ADP, […] arachidonic acid or 9.6 micrograms/ml collagen; PRP; read-out: IC50 against canine platelet aggregation. Here is the method: (§1) Platelet counts and ex vivo aggregation studies were performed one hour before and 1, 3, and 5 hours after application of anodal direct current.
Epinephrine (550 nM) was used to prime platelets before stimulation with arachidonic acid. Peptides were added in 1% dilutions to the PRP solutions.

The test system of experiment [2] is platelet aggregation. The experiment in a line: Ex vivo platelet aggregation after peptide injection in canine coronary thrombosis model. Set-up: species or system dog. The note with it: 10 mg/kg. Here is the method: For all ex vivo studies (see FIGS. 3a, 3b1, 3b2, 3b3, 3c1 and 3c2), control aggregation values were standardized to the percentages of light transmission observed in PRP and PPP samples (0% and 100%, respectively).
(§2) Animals were randomly assigned to two treatment groups: vehicle control (i.e., normal saline) or RGD peptides at various concentrations. Peptides were administered intra-atrially in both bolus and continuous injections. […] A continuous infusion of the same peptide was then started immediately after completion of this initial injection. Animals that received a 5 mg/kg bolus also received a 5 mg/kg/hr infusion, whereas animals that received a 10 mg/kg bolus also received a 10 mg/kg/hr infusion. The anti-thrombotic effects of the peptides were monitored until 30 minutes after the occurrence of a persistent, occlusive thrombus or five hours after the initiation of electrical stimulation (whichever resulted first). If an occlusive thrombus had not developed within four hours after the initiation of current, the peptide infusion was stopped.
as §1
Platelet aggregation was also determined ex vivo at one, three, and five hours after current application. For these studies, arachidonic acid, or collagen was again used to stimulate the platelets.
The average aggregation values determined in these studies for all of the peptide treatments are depicted in FIGS. 3a, 3b1, 3b2, 3b3, 3c1, and 3c2. […] The control responses in these studies were 70-80% of maximum. […] Here the control responses were 55-80% of maximum.

In experiment [3] the test system is coronary thrombosis. The experiment can be described thus: Electrically induced canine coronary thrombosis, time to full occlusion. Conditions: 10 mg/kg bolus + 10 mg/kg/hr infusion, intra-atrial. In kind it is in vivo, dog. Here is the method:
Male mongrel dogs weighing 14 to 20 kg were selected based on proper aggregation of their platelets in response to arachidonic acid, collagen, and adenosine disphosphate (ADP) and based on similar weights and hemodynamic properties.
Before surgery, the animals were anesthetized with sodium pentobarbital (30 mg/kg, i.v.) and then intubated and ventilated on room air with positive pressure using a respirator (Harvard Apparatus, S. Natick, Mass.) at a volume of 30 ml/kg and a frequency of 12 breaths/min. Surgery, performed under aseptic conditions, was begun with the placement of cannulae into the left carotid artery and jugular vein for monitoring arterial blood pressure (Statham P23 pressure transducer, Gould, Inc., Cardiovascular Products, Oxnard, Calif.) and administering intravenous fluids.
The heart was exposed via a left thoracotomy through the 5th intercostal space. A 2-cm segment of the left circumflex coronary artery (LCCA) was isolated from surrounding tissue by blunt dissection. […] The intra-coronary electrode was constructed by attaching a 25-gauge hypodermic needle tip to a 30-gauge Teflon-insulated silver-coated copper wire. The mechanical occluder was constructed of stainless steel in a C shape with a Teflon screw (2 mm diameter) on top. It was adjusted to control vessel circumference and decrease the reactive hyperemic flow due to a 10-sec (full) occlusion by 50-70% without affecting basal coronary blood flow (FIG. 1c). A monopolar epicardial electrode was sutured to the surface of the ventricle in the region of LCCA distribution to monitor ischemic changes in the electrocardiogram (ECG). The left atrium was cannulated with polythylene tubing for administration of the peptide. Continuous recordings of blood pressure, limb lead II ECG, epicardial electrogram, and mean and phasic LCCA blood flow were obtained on a Model 7 polygraph (Grass Instrument Co., Quincy, Mass.).
One hour after the completion of surgery, a 100 micro-amp continuous anodal direct current delivered from a 9 volt nickel-cadmium battery was applied to the intimal surface of the LCCA. The anode of the battery was in series with a 250,000 ohm potentiometer and the intraluminal coronary artery electrode. The electric circuit was completed by placing the cathode in a subcutaneous site. Electrical stimulation was applied for three hours. At the conclusion of each experiment, the heart was fibrillated electrically and quickly removed, and the LCCA was dissected free as far as possible to verify the position of the implanted anodal electrode.
as §2
Coronary thrombosis was quantified as the time to full occlusion. The effects of the various peptide treatments on coronary thrombosis is illustrated in FIG. 4.

Experiment [4] deals with Gore-tex vascular graft thrombosis. The experiment can be described thus: Platelet and fibrinogen uptake by Gore-tex grafts in baboon ex vivo shunt. How it is done: Adult male baboons (weighing 16 to 25 kg) were used in these studies. These were sedated with ketamine hydrochloride (200 to 250 mg intramuscular injection) and maintained under anesthesia with sodium pentobarbital (50 to 75 mg administered intravenously as necessary).
Twenty-four hours before the ex vivo shunt was established, platelets were isolated from 500 ml of blood from the test animal and labelled with ca. 500 microcuries of indium-111 oxine (Medi+Physics, Emeryville, Calif.), which irreversibly and specifically binds to platelets with an efficiency of 50%. Immediately after labelling, these platelets were then injected back into the animal and allowed to circulate for 24 hours. Immediately before the start of the study, fibrinogen that had been isolated from the animal and labelled with iodine-131 (DuPont Nuclear, Boston, Mass.) was also injected back into the animal. Also at this time, baseline determinations of the clotting and template bleeding times were made, and blood samples were drawn for hematology studies.
To establish the ex vivo shunt, the femoral artery and vein were percutaneously cannulated with introducer catheters (KMA Inc., Mansfield, Mass.). The catheters were then connected to medical-grade, heparin-coatedsilastic tubing (2.59 mm internal diameter, (Extracorporeal Medical Specialties, Inc., King of Prussia, Pa.). […] Finally, a 5 cm-long test segment of a 4 mm (internal diameter) vascular graft was inserted at the apex of the circuit. The graft used in these studies was Gore-tex (expanded polytetrafluoroethylene, (W. L. Gore and Associates, Inc., Flagstaff, Ariz.). An electromagnetic flow probe was then inserted into the tubing circuit to measure blood flow, which was maintained at 100 ml/min. by varying the resistance imported by a partially occluding screw clamp that was distal to the probe. Finally, a 5 cm-long test segment of a 4 mm (internal diameter) vascular graft was inserted at the apex of the circuit. The graft used in these studies was Gore-tex (expanded polytetrafluoroethylene, W. L. Gore and Associates, Inc., Flagstaff, Ariz.).
Platelet deposition onto the grafts was monitored by dynamic scanning with a gamma camera (Sigma 400, Ohio Nuclear, Inc., Sohon, Ohio), which detects the gamma radiation emitted by the indium^111 -labelled platelets. Once the circuit was in place, the animal was placed under this camera, and blood flow was initiated. Scans were then taken at the rate of one frame per two minutes for two hours. The data from these scans were collected on a dedicated Digital MDA computer (Maynard, Mass.). […]

The subject of experiment [5] is platelet aggregation. The experiment can be described thus: Ex vivo ADP-stimulated platelet aggregation in baboon PRP. Conditions: animal 2; ADP 10 μm; 0, 1 and 2 hours. How it is done:
At one- and two-hour time points, template bleeding times were measured, and blood samples were drawn to assess the hematology aggregation studies. Platelet aggregation studies were performed as described in Example V using ADP as the stimulus.
In addition, platelet aggregation studies were conducted on PRP derived from the second animal. Whole blood was drawn at three time points (0, 1 and 2 hours) of both control and experimental shunts.

Where [6] appears, read: animal 1, two bolus IV injections of 10 mg/kg.
Where [7] appears, read: animal 2, 10 mg/kg IV bolus + 10 mg/kg/hr infusion for two hours.

As usually defined, the IC50 is the concentration needed to halve the response being measured.

GPenGHRGDLRCA: the half-inhibitory concentration (IC50) in experiment [1] was in the range of 15 to 30 µM. Besides, in experiment [2] (all three time points), the “ex vivo inhibition of AA-stimulated aggregation relative to control” value is 43-70% and the “ex vivo inhibition of collagen-stimulated aggregation relative to control” value is on record as 12-50%. In addition, the “ex vivo inhibition of ADP-stimulated aggregation” value in experiment [2] (one, three, five hours) is given as “substantially inhibited”. Further, the “time to full occlusion” value in experiment [3] is “did not significantly influence”. Further, in experiment [4] (setting [6]), the “reduction in I131-fibrinogen uptake by graft” value worked out at 79% and the “reduction in In111-platelet uptake by graft” value was 90%. In addition, in experiment [4] (setting [7]), the “reduction in labelled fibrinogen uptake by graft” value came to 78% and the “reduction in labelled platelet uptake by graft” value was found to be 84%. For the same substance, the “ex vivo platelet response to ADP” value in experiment [5] was “completely unresponsive”.
